Measurements reported in article PMC9395488, “First-in-human study of IM156, a novel potent biguanide oxidative phosphorylation (OXPHOS) inhibitor, in patients with advanced solid tumors” (Investigational New Drugs, 2022).
“Also recorded” adds a separate entry of the source. Like-named read-outs stand apart in the source and are kept apart here.

Experiments:
protein complex 1 = tested on: protein complex 1; parameters: method as in ImmunoMet, 2018; details: study protocol background; ref ImmunoMet, 2018; cited from earlier work
[1] = presence and absence of activated S9; ref ImmunoMet, 2018; cited from earlier work
[2] = SD rats, 50, 100/75, or 150/100 mg/kg QOD oral gavage; ref ImmunoMet, 2018; cited from earlier work
advanced solid tumors = experiment: Preliminary efficacy (RECIST 1.1 / RANO response, PFS); format: in vivo, human
Source text: A preliminary evaluation of efficacy was based on serial CT or magnetic resonance imaging (MRI). Response criteria were as defined by RECIST 1.1 or RANO. The following endpoints were to be assessed: overall response rate (ORR: complete response [CR] plus partial response [PR]), disease control rate (DCR: CR + PR + stable disease [SD]), DoR, and PFS.
The safety population was defined as all patients who received at least one dose of IM156. The PK population was not defined in the protocol but included all patients with sufficient PK data to perform adequate PK modeling. The efficacy population included all patients who underwent at least one tumor imaging assessment while receiving IM156. Safety was assessed using descriptive statistics (e.g., DLTs, AEs, laboratory tests, physical examination, 12-lead ECG). The incidence and number of events were reported for the DLTs observed in Cycle 1 per dose group. […] Two-sided 95% Confidence Intervals (CIs) were also provided. Adverse events and TRAEs were standardized with the System Organ Class and the Preferred Term using the Medical Dictionary for Regulatory Activities v23.0. In addition, TEAEs, serious adverse events (SAEs), TEAE severity, and TEAEs leading to withdrawal were presented by dose group. Efficacy data were to be presented by Waterfall and Swim Lane plots. Time to event endpoints (e.g., DoR, PFS) were determined using Kaplan–Meier estimations with the median value for each endpoint summarized.

tumor cells = tested on: tumor cells; parameters: method as in Immunomet – Data on File; details: at equal concentrations, ref Immunomet – Data on File, cited from earlier work
beagle dogs = details: ref ImmunoMet, 2018, cited from earlier work
A549 = tested on: A549; parameters: method as in ImmunoMet, 2018; details: in A549; ref ImmunoMet, 2018; read-out: OXPHOS inhibition IC50; cited from earlier work
[3] = tested on: GC lines including MKN-74; parameters: method as in ImmunoMet, 2018; details: Eleven GC lines including MKN-74; ref ImmunoMet, 2018; cited from earlier work
SD rats = details: 2018, cited from earlier work
Hs746T GC xenograft = tested on: Hs746T GC xenograft; parameters: method as in ImmunoMet, 2018; details: Hs746T GC xenograft in mice, each compound alone; IM156 10 or 30 mg/kg, Irinotecan 50 or 75 mg/kg; ref ImmunoMet, 2018; cited from earlier work
[4] = beagle dogs, ref ImmunoMet, 2018, cited from earlier work
[5] = tested on: purified complex I membrane from bovine heart; parameters: method as in ImmunoMet, 2018; details: ref ImmunoMet, 2018, read-out: mitochondrial OXPHOS inhibition IC50; cited from earlier work
OXPHOS = tested on: OXPHOS; parameters: method as in ImmunoMet, 2018; details: at the highest concentrations; ref ImmunoMet, 2018; cited from earlier work
glioblastoma (GSC11) = tested on: glioblastoma (GSC11); parameters: method as in ImmunoMet, 2018; details: glioblastoma animal model, control group 47 days; ref ImmunoMet, 2018; cited from earlier work
[6] = tested on: miR-17~92 overexpression Eµ-MYC lymphoma; parameters: method as in ImmunoMet, 2018; details: nude mice, IM156 in drinking water 0.8 mg/mL, vs control line or regular drinking water; ref ImmunoMet, 2018; cited from earlier work
[7] = major metabolic organs such as lung, liver, kidney; cited from earlier work
[8] = 150 mg/kg/dose QOD oral, between Days 8 and 10, ref ImmunoMet
[9] = oral QOD over 27 days (14 doses), ref ImmunoMet

NC(=Nc1ccc(OC(F)(F)F)cc1)N=C(N)N1CCCC1 [IM156]
potency as protein complex 1 inhibitor relative to metformin (protein complex 1): ~ 100 times | genotoxicity in two in vitro assays [1]: not genotoxic | dose proportionality of exposure based on AUClast [2]: more than dose-proportional | dose proportionality of exposure based on Cmax [2]: less than dose-proportional | duration of prolonged SD / time on IM156 (advanced solid tumors; 1 patient with gastric adenocarcinoma): 169 days | duration of prolonged SD / time on IM156 (advanced solid tumors; 1 patient with gastric neuroendocrine carcinoma): 444 days | objective responses (CRs or PRs) (advanced solid tumors; 16 of 22 patients with response data): No objective responses; also recorded: No clinical responses | median PFS (advanced solid tumors; Kaplan–Meier): 54 days | median PFS, 95% CI (advanced solid tumors; Kaplan–Meier): 47 to 71 days | disease control rate (DCR) (advanced solid tumors; N = 22): 32% | patients with confirmed SD (advanced solid tumors; N = 22): 2 patients | patients with confirmed SD, percent (advanced solid tumors; N = 22): 9% | patients with stable disease (SD) as best response (advanced solid tumors; N = 22): 7 patients | patients with stable disease (SD) as best response, percent (advanced solid tumors; N = 22): 32% | reduction of cellular ATP production versus phenformin (tumor cells; without increase in ECAR): more potent | decrease of oxygen consumption rate (OCR) of tumor cells compared to phenformin and metformin (tumor cells): more potent | tolerability (beagle dogs; beagle dogs, 20, 40, or 80 mg/kg/dose QOD oral gavage, 27 days): tolerated and did not result in morbidity/mortality | highest non-severely toxic dose (HNSTD) (beagle dogs; beagle dogs, oral QOD over 27 days (14 doses), highest dose tested): ≥ 80 mg/kg | IC50 (A549): 9 µM | sensitivity of GC lines to single agent [3]: significant sensitivity | tolerability (SD rats; 50 mg/kg/dose QOD oral gavage, 27 days, ref ImmunoMet): well tolerated | preterminal euthanasia, females (SD rats; [8]): 3/15 | preterminal euthanasia, males (SD rats; [8]): 2/15 | no-observed-adverse-effect level (NOAEL) (SD rats; [9]): 50 mg/kg/dose | severely toxic dose in 10% of the rats (STD10) (SD rats; [9]): 100 mg/kg/dose | reduction of tumor volume (Hs746T GC xenograft): ~ 70% | accumulation over 27 days ([4]; 20 mg/kg/dose QOD): no apparent accumulation | accumulation over 27 days ([4]; 40 and 80 mg/kg/dose QOD): accumulation | IC50 [5]: 2 µM | time to show OXPHOS inhibition (OXPHOS): ≤ 20 min | median survival time (glioblastoma (GSC11)): 82 days | extension of overall animal survival [6]: approximately 50% | tissue concentrations compared to plasma [7]: 30–80 fold
